Source: US12485078B2, “Personal dental care product for caries treatment” (Credentis AG, priority 2016, dated 2025)

Key:
[1] = Penetration of P11-4 (200 ppm, spiked with 10 ppm ATTO647-P11-4, 25 mM TRIS) into artificial subsurface lesions, confocal microscopy; set-up: species or system human; key to presence of fluorescent P11-4 in lesion, 6 d / presence of fluorescent P11-4 in lesion, 1 min / presence of fluorescent P11-4 in lesion, 2 min / presence of fluorescent P11-4 in lesion, 5 min / presence of fluorescent P11-4 in lesion, 4 d: 1 = no or low presence; 4 = high presence of fluorescent P11-4; Average presence of P11-4: scale not given here; settings: for presence of fluorescent P11-4 in lesion, 1 min: 1 min incubation; for presence of fluorescent P11-4 in lesion, 2 min: 2 min incubation; for presence of fluorescent P11-4 in lesion, 5 min: 5 min incubation; for presence of fluorescent P11-4 in lesion, 6 d: washing in H2O; for presence of fluorescent P11-4 in lesion, 4 d: washing in Remin. buffer
Method: Creation of artificial lesions on extracted human molar teeth was performed as described by Lo et al. 2010 (J Dent. 38(4):352-359). To define the position of the demineralized subsurface area (i.e., artificial carious lesion or white spot), the tooth was covered with colourless nail varnish, leaving a window of approximately 4×4 mm. The tooth was placed in demineralization buffer (2.2 mM CaCl2, 2.2 mM NaH2PO4, 50 mM acetic acid; pH adjusted with 1 M KOH to 4.4) for 3 d at 37° C. To ensure that all pores are open, as in a typical active caries lesion, the resulting subsurface lesions were treated with 10 μL of 2% NaClO (incubation for 1 min), rinsed, and air-dried at room temperature.
• A 200 ppm (i.e., 200 μg/ml) solution of P11-4 (SEQ ID NO: 2), spiked with 10 ppm ATTO647-P11-4 (fluorescence labelled P11-4 (SEQ ID NO: 6): Ac-QQRFEWEFEQQSGSGC-(ATTO647)-NH2), i.e., 1:20, in 25 mM TRIS buffer was prepared at different pH, in particular, at 8.4 or 8.5 or 6.3, 6.5 or 6.8) • As specified in the table below, tooth were optionally pretreated, e.g., by incubation in human saliva for one day (about 24 hours), optionally followed by 5 min sonication (258 hz with a sonic toothbrush, Sonicare Diamond Clean® (Philips)) or by immersion in 2% NaClO for 1 min. • Tooth were immersed in the P11-4 solution for a defined period of time, 1, 2 or 5 min, and then removed and washed in water for 10 min or in remineralization buffer (2 mM Ca(NO3), 1.2 mM KHPO4, and 60 mM Tris/HCl, pH adjusted to 7.4 with 1 M KOH) for 4 days and/or 6 days. • Confocal assessment after 1, 2 or 5 min incubation was carried out while the teeth were in P11-4 solution, and optionally, after washing in water or in remineralization buffer after 10 min or 4 or 6 days. c) Confocal Microscopy
Samples were placed in a μ-slide I (ibidi, Martinsried) in dest. water and analyzed by a confocal laser microscope (Olympus IX81). The recorded stack of four 2-dimensional images each projected the lesion volume of 51.4 μm thickness, giving a total assessment depth of 205 μm (objective: UPLSAPO 20×/NA 0.75; helium-neon gas laser; excitation: 633 nm and emission: 668 nm). Images were analyzed by Olympus software (FluoView FV1000).

[2] = pH at which the peptide starts to undergo self-assembly; format: physicochemical; settings: in solution
Description: As used herein, the pH at which the self-assembling peptide starts to undergo self-assembly refers to the pH below which a significant extent of self-assembly of the peptides in solution is observed, which means that at least about 25%, about 30%, about 35%, about 40%, about 45%, about 50%, about 55%, about 60%, about 65%, about 70%, about 75%, about 80%, about 85%, about 90%, about 95%, about 99% or even about 100% of the peptides found in the dental care product are assembled. In a preferred embodiment, at least about 25% of the peptides found in the dental care product are assembled below the pH at which the peptide starts to undergo self-assembly.
Further, the skilled person is aware of numerous methods to determine the pH at which a peptide of the present invention will start self-assembly at a given ionic strength. Suitable methods are denoted e.g. in a publication by Aggeli et al. (2003, J Am Chem Soc, 125, 9619-9628).

[3] = 200 ppm in a slightly basic buffer
[4] = tooth 1, pH 8.4, no pretreatment
[5] = tooth 2, pH 8.4, no pretreatment
[6] = tooth 3, pH 6.3, saliva pre-incubation
[7] = tooth 4, pH 6.3, no pretreatment
[8] = tooth 5, pH 8.5, saliva pre-incubation
[9] = tooth 10, pH 8.5, no pretreatment
[10] = tooth 11, pH 8.5, saliva pre-incubation
[11] = tooth 12, pH 6.5, no pretreatment
[12] = tooth 13, pH 6.8, saliva pre-incubation
[13] = tooth ZR1, pH 8.5, sonification pretreatment
[14] = tooth ZR2, pH 8.5, saliva pre-incubation then NaClO
[15] = tooth ZR3, pH 8.5, saliva pre-incubation then sonification
[16] = tooth ZR4, pH 8.5, saliva pre-incubation

## Ac-QQRFEWEFEQQSGSGC-(ATTO647)-NH2 (Ac-QQRFEWEFEQQSGSGC(ATTO647)-NH2) [fluorescent P11-4]
[1]; [3]
  diffusion of monomeric peptide into artificial carious lesions: can diffuse into the artificial carious lesions and form a stable network there
  peptide detected outside the lesions: No significant amounts
[1]; pH 8.5, 1, 2, or 5 min, teeth 11, 5 and ZR4, versus no pre-incubation
  effect of pre-incubation with human saliva (pellicle) on presence of fluorescent peptide on the tooth or in the lesions: significantly lower presence
[1]; [4]
  Average presence of P11-4: 2.7
  presence of fluorescent P11-4 in lesion, 1 min: 4
  presence of fluorescent P11-4 in lesion, 2 min: 2
  presence of fluorescent P11-4 in lesion, 5 min: 2
[1]; [5]
  presence of fluorescent P11-4 in lesion, 1 min: 1
  presence of fluorescent P11-4 in lesion, 2 min: 3
  presence of fluorescent P11-4 in lesion, 5 min: 3
  presence of fluorescent P11-4 in lesion, 6 d: 1
[1]; tooth 2, pH 8.4, no pretreatment, H2O wash
  Average presence of P11-4: 2.0
[1]; [6]
  presence of fluorescent P11-4 in lesion, 1 min: 1
  presence of fluorescent P11-4 in lesion, 2 min: 1
  presence of fluorescent P11-4 in lesion, 5 min: 1
  presence of fluorescent P11-4 in lesion, 6 d: 1
[1]; tooth 3, pH 6.3, saliva pre-incubation, H2O wash
  Average presence of P11-4: 1.0
[1]; [7]
  presence of fluorescent P11-4 in lesion, 1 min: 1
  presence of fluorescent P11-4 in lesion, 2 min: 1
  presence of fluorescent P11-4 in lesion, 5 min: 2
  presence of fluorescent P11-4 in lesion, 6 d: 1
[1]; tooth 4, pH 6.3, no pretreatment, H2O wash
  Average presence of P11-4: 1.3
[1]; [8]
  Average presence of P11-4: 1.3
  presence of fluorescent P11-4 in lesion, 1 min: 2
  presence of fluorescent P11-4 in lesion, 2 min: 1
  presence of fluorescent P11-4 in lesion, 5 min: 1
[1]; [9]
  presence of fluorescent P11-4 in lesion, 1 min: 1
  presence of fluorescent P11-4 in lesion, 2 min: 4
  presence of fluorescent P11-4 in lesion, 5 min: 4
  presence of fluorescent P11-4 in lesion, 4 d: 2
[1]; tooth 10, pH 8.5, no pretreatment, Remin. buffer wash
  Average presence of P11-4: 2.8
[1]; [10]
  presence of fluorescent P11-4 in lesion, 1 min: 1
  presence of fluorescent P11-4 in lesion, 2 min: 1
  presence of fluorescent P11-4 in lesion, 5 min: 1
  presence of fluorescent P11-4 in lesion, 4 d: 1
[1]; tooth 11, pH 8.5, saliva pre-incubation, Remin. buffer wash
  Average presence of P11-4: 1.0
[1]; [11]
  presence of fluorescent P11-4 in lesion, 1 min: 2
  presence of fluorescent P11-4 in lesion, 2 min: 3.5
  presence of fluorescent P11-4 in lesion, 5 min: 2
  presence of fluorescent P11-4 in lesion, 4 d: 1
[1]; tooth 12, pH 6.5, no pretreatment, Remin. buffer wash
  Average presence of P11-4: 2.1
[1]; [12]
  presence of fluorescent P11-4 in lesion, 1 min: 1
  presence of fluorescent P11-4 in lesion, 2 min: 2
  presence of fluorescent P11-4 in lesion, 5 min: 2
  presence of fluorescent P11-4 in lesion, 4 d: 1
[1]; tooth 13, pH 6.8, saliva pre-incubation, Remin. buffer wash
  Average presence of P11-4: 1.5
[1]; [13]
  Average presence of P11-4: 4.0
  presence of fluorescent P11-4 in lesion, 1 min: 4
  presence of fluorescent P11-4 in lesion, 2 min: 4
  presence of fluorescent P11-4 in lesion, 5 min: 4
[1]; [14]
  Average presence of P11-4: 3.7
  presence of fluorescent P11-4 in lesion, 1 min: 3
  presence of fluorescent P11-4 in lesion, 2 min: 4
  presence of fluorescent P11-4 in lesion, 5 min: 4
[1]; [15]
  Average presence of P11-4: 2.3
  presence of fluorescent P11-4 in lesion, 1 min: 1
  presence of fluorescent P11-4 in lesion, 2 min: 3
  presence of fluorescent P11-4 in lesion, 5 min: 3
[1]; [16]
  Average presence of P11-4: 1.3
  presence of fluorescent P11-4 in lesion, 1 min: 1
  presence of fluorescent P11-4 in lesion, 2 min: 1
  presence of fluorescent P11-4 in lesion, 5 min: 2

## CH3CO-QQRFEWEFEQQ-NH2 (Ac-QQRFEWEFEQQ-NH2) [terminally modified P11-4]
[2]
  pH at which the self-assembling peptides start to undergo self-assembly: about 7.5
